This is an account of results in paper PMC8400257, “2-Phenoxy-3-Trichloromethylquinoxalines Are Antiplasmodial Derivatives with Activity against the Apicoplast of Plasmodium falciparum” (Pharmaceuticals, 2021).

In the assay the test system is K1 chloroquine and pyrimethamine-resistant P. falciparum strain. The assay can be described thus: In vitro antiplasmodial evaluation (SYBR Green I). Format: cell-based, Plasmodium falciparum. How it is done: For all molecules, the selectivity index was calculated as following SI = CC50/EC50.
It was maintained in continuous culture, as described previously by Trager and Jensen. Cultures were maintained in fresh A+ human erythrocytes at 2.5% hematocrit in complete medium (RPMI 1640 with 25 mM HEPES, 25 mM NaHCO3, 10% of A+ human serum) at 37 °C under reduced O2 atmosphere (gas mixture 10% O2, 5% CO2, and 85% N2). Parasitemia was maintained daily between 1 and 3%. The P. falciparum drug susceptibility test was carried out by comparing quantities of DNA in treated and control cultures of parasite in human erythrocytes according to an SYBR Green I fluorescence-based method using a 96-well fluorescence plate reader. Compounds, previously dissolved in DMSO (final concentration less than 0.5% v/v), were incubated in a total assay volume of 200 μL (RPMI, 2% hematocrit and 0.4% parasitemia) for 72 h in a humidified atmosphere (10% O2 and 5% CO2) at 37 °C, in 96-well flat bottom plates. Duplicate assays were performed for each sample. After incubation, plates were frozen at […] for 24 h. Then, the frozen plates were thawed for 1 h at 37 °C. Fifteen µL of each sample were transferred to 96-well flat bottom non-sterile black plates (Greiner Bio-one, Kremsmünster, Austria), already containing 15 µL of the SYBR Green I lysis buffer (2X SYBR Green I, 20 mM Tris base pH 7.5, 20 mM EDTA, 0.008% w/v saponin, 0.08% w/v Triton X-100). […] Plates were incubated for 15 min at 37 °C and then read on a TECAN Infinite F-200 spectrophotometer with excitation and emission wavelengths at 485 and 535 nm, respectively.

As for `O=[N+]([O-])c1ccc(Oc2nc3ccccc3nc2C(Cl)(Cl)Cl)cc1` [3i, 2-(4-Nitrophenoxy)-3-trichloromethylquinoxaline], the EC50 (usually the midpoint of the concentration-response curve) (Plasmodium falciparum, K1, 72 h, K1 strain, 72 h incubation, three independent experiments, read-out: EC50 PfK1 (µM) ± SD) stood at 0.2 ± 0.04 µM. The “SI (selectivity index)” value (SI = CC50 HepG2/EC50 PfK1) is on record as 160.0.
